In the supplement of paper PMC11451515:

How the values were obtained:
Assay in all cases: AUC of viability dose-response curve (% viability x log10 dose units); higher = less sensitive
Settings in all cases: 48 h
[1] = test system: SEM cells
Procedure, shortened: (§1)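 Leukemia cells adapted to each medium were seeded at 500 or 1000 cells/well in 1536-well plates and dosed with library compounds in DMSO at 11 threefold doses from 47 μM to 0.79 nM for 48 h at 37°C. CellTiter-Glo One luminescence was normalised per plate to DMSO and cell-free wells, then fitted with a four-parameter log-logistic model over log10 doses. Area under the curve was taken from this fit by the trapezoidal rule, with curves above full viability scaled and curves failing quality control removed.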

[2] = test system: NOMO1
Procedure, shortened: as §1

[3] = test system: P12-Ichikawa
Procedure, shortened: as §1

[4] = RPMI 5 mM glucose + 10% dialyzed FBS

Structure (SMILES) | AUC of viability dose-response curve ([1]; HPLM + 10% dialyzed FBS) | AUC of viability dose-response curve ([1]; RPMI 5 mM glucose + 10% FBS) | AUC of viability dose-response curve [1, 4] | AUC of viability dose-response curve ([2]; HPLM + 10% dialyzed FBS) | AUC of viability dose-response curve ([2]; RPMI 5 mM glucose + 10% FBS) | AUC of viability dose-response curve [2, 4] | AUC of viability dose-response curve ([3]; HPLM + 10% dialyzed FBS) | AUC of viability dose-response curve ([3]; RPMI 5 mM glucose + 10% FBS) | AUC of viability dose-response curve [3, 4]
C[C@@H](NC(=O)c1ncnc(N)c1Cl)c1ncc(C(=O)Nc2cc(C(F)(F)F)c(Cl)cn2)s1 | 470 | 467 | 467 | 451 | 460 | 453 | 461 | 449 | 448
C[C@]12CC[C@H]3[C@@H](CCC/4=C/C(=O)CC[C@]34C)[C@@H]1CC[C@@H]2O | 467 | 450 | 444 | 463 | 460 | 462 | 468 | 467 | 470
COC(=O)C1C2CC3c4[nH]c5cc(OC)ccc5c4CCN3CC2CC(OC(=O)c2cc(OC)c(OC)c(OC)c2)C1OC (configuration not stated) | 462 | 459 | 456 | 465 | 454 | 468 | 467 | 471 | 445
NCCCCNCCCN | 373 | 427 | 388 | 438 | 460 | 460 | 458 | 434 | 445
C=CCc1cccc(/C=N/NC(=O)CN2CCN(Cc3ccccc3)CC2)c1O | 399 | 411 | 378 | 419 | 448 | 433 | 420 | 424 | 417
CC(C)c1cnn2c(NCc3ccccc3)cc(NCCCCCCN)nc12 | 465 | 416 | 471 | 464 | 470 | 463 | 464 | 442 | 439
COc1cccc([C@@H](C)NCCCc2ccccc2Cl)c1 | 463 | 436 | 472 | 461 | 437 | 429 | 440 | 435 | 432
NC(=O)C1CCCc2c1[nH]c1ccc(Cl)cc21 (configuration not stated) | 343 | 381 | 365 | 370 | 401 | 404 | 417 | 436 | 421
N#Cc1ccnc(Nc2cc(C3CCN(C4COC4)CC3)cc(N3CCC(F)(F)C3)n2)c1 | 424 | 415 | 408 | 430 | 429 | 426 | 455 | 441 | 439
[O-]C(=O)C1=C(C(=C(Cl)C(=C1Cl)Cl)Cl)C/2=C/3\C=C(I)/C(=O)/C(=C3OC4=C2C=C(I)C(=C4I)[O-])I | 466 | 464 | 462 | 474 | 451 | 457 | 446 | 450 | 445
COCCOc1nc(-c2ccc(Cl)c(Cl)c2)n(-c2ccc(NC(=O)CCl)cc2)n1 | 444 | 430 | 430 | 460 | 408 | 433 | 469 | 450 | 421
Cc1cnc(C(=O)O)c[n+]1[O-] | 450 | 416 | 475 | 400 | 454 | 447 | 460 | 468 | 441
Cn1cc(/C=C2\C(=O)Nc3cccnc32)c2ccccc21 | 430 | 421 | 415 | 464 | 451 | 449 | 414 | 442 | 437
COc1cc([C@H]2Oc3cc([C@H]4Oc5cc(O)cc(O)c5C(=O)[C@@H]4O)ccc3O[C@@H]2CO)ccc1O | 455 | 473 | 467 | 470 | 465 | 452 | 464 | 446 | 456
c1ccc(CNc2nc(N3CCOc4ccccc43)nc3c2CCCC3)cc1 | 455 | 428 | 451 | 468 | 473 | 470 | 461 | 476 | 472
CN1CCCC(CC1)N2\N=C(CC3=CC=C(Cl)C=C3)/C4=C(C=CC=C4)C2=O (configuration not stated) | 468 | 394 | 464 | 440 | 457 | 461 | 455 | 466 | 461
CN(C)CCN(C)C(=O)c1ccc(NC(=O)Nc2ccc(-c3nc(N4CCOCC4)c4ccn(CC(F)(F)F)c4n3)cc2)cc1 | 339 | 325 | 341 | 327 | 393 | 371 | 417 | 359 | 360

Structure (SMILES) | AUC of viability dose-response curve ([1]; HPLM + 10% dialyzed FBS) | AUC of viability dose-response curve ([1]; RPMI 5 mM glucose + 10% FBS) | AUC of viability dose-response curve [1, 4] | AUC of viability dose-response curve ([2]; HPLM + 10% dialyzed FBS) | AUC of viability dose-response curve ([2]; RPMI 5 mM glucose + 10% FBS) | AUC of viability dose-response curve [2, 4] | AUC of viability dose-response curve ([3]; HPLM + 10% dialyzed FBS) | AUC of viability dose-response curve ([3]; RPMI 5 mM glucose + 10% FBS) | AUC of viability dose-response curve [3, 4]
Nc1nc(N)c2nc(-c3cccc(O)c3)c(-c3cccc(O)c3)nc2n1 | 409 | 430 | 420 | 402 | 443 | 440 | 409 | 445 | 454
CC/1=C(/C(CC(=O)N1)C2=CC=C(C=C2)C(F)(F)F)C(=O)NC3=C(F)C=C4[NH]N=CC4=C3 (configuration not stated) | 405 | 418 | 411 | 422 | 389 | 415 | 442 | 450 | 448
ClC1=CC\2=C(NC(=O)\C(=C2N[C@@H]3CN4CCC3CC4)C5=NC6=C([NH]5)C=CC=C6)C=C1 | 211 | 200 | 218 | 286 | 257 | 276 | 302 | 263 | 291
CN1CCC[C@@H]1CCO[C@](C)(c1ccccc1)c1ccc(Cl)cc1 | 469 | 472 | 471 | 466 | 461 | 473 | 463 | 467 | 474
CN(C)CCOc1ccc(-c2nc(-c3ccncc3)c(-c3ccc4c(c3)CC/C4=N\O)[nH]2)cc1 | 458 | 455 | 466 | 450 | 465 | 437 | 456 | 454 | 452
C=CC(=O)Nc1cccc(Nc2nc(NC3CCC(N(C)C)CC3)nc3c2ncn3C(C)C)c1 (configuration not stated) | 319 | 340 | 320 | 348 | 361 | 350 | 366 | 366 | 377
O=C(O)/C=C/c1ccc(O)c(O)c1 | 447 | 423 | 428 | 454 | 453 | 462 | 449 | 447 | 443
COC[C@H](c1ccc(C(F)(F)F)cc1)N1CCN(C2(C)CCN(C(=O)c3c(C)ncnc3C)CC2)C[C@H]1C.O=C(O)/C=C\C(=O)O | 445 | 410 | 450 | 409 | 411 | 424 | 469 | 454 | 467
NC(=O)c1cccc2cn(-c3ccc([C@@H]4CCCNC4)cc3)nc12 | 438 | 448 | 446 | 468 | 456 | 470 | 453 | 441 | 458
C/C(O)=C(\C#N)C(=O)Nc1cc(Br)ccc1Br | 441 | 442 | 434 | 420 | 439 | 442 | 462 | 469 | 449
NC(=O)c1cccc2nc(-c3ccc([C@H]4CCCN4)cc3F)[nH]c12 | 398 | 363 | 362 | 464 | 472 | 466 | 463 | 466 | 465
CC1=C(CC(=O)O)c2cc(F)ccc2/C1=C\c1ccc([S+](C)[O-])cc1 (configuration not stated) | 450 | 422 | 430 | 448 | 453 | 445 | 458 | 451 | 449
Cc1cc(C(=O)N2CCN(c3cccc(Cl)c3)CC2)n(-c2ccccc2)n1 | 354 | 368 | 357 | 364 | 389 | 375 | 349 | 373 | 374
O=C(Nc1ncc(-c2cc(C(F)F)nn2-c2c(Cl)cccc2Cl)s1)C1CC1 | 347 | 333 | 340 | 398 | 381 | 370 | 329 | 326 | 345
C[C@]12CC[C@H]3[C@@H](C\C=C/4C[C@@H](O)CC[C@]34C)[C@@H]1CCC2=O | 468 | 454 | 462 | 439 | 448 | 460 | 449 | 438 | 454
Nc1cc(C(F)(F)F)c(-c2cc(N3CCOCC3)nc(N3CCOCC3)n2)cn1 | 307 | 283 | 299 | 317 | 340 | 334 | 328 | 334 | 329
